Measured values taken from paper PMC7736581, “Activation of the IRE1 RNase through remodeling of the kinase front pocket by ATP-competitive ligands” (Nature Communications, 2020).

Experiments:
Assay in all cases: biochemical
PERK = biological target: T1, PERK (Homo sapiens, UniProt Q9NZJ5); set-up: 33P incorporation kinase assay (Reaction Biology), myelin basic protein substrate; settings: 10 uM ATP
T1 construct: gene EIF2AK3
T1 sequence (Q9NZJ5 1-1116): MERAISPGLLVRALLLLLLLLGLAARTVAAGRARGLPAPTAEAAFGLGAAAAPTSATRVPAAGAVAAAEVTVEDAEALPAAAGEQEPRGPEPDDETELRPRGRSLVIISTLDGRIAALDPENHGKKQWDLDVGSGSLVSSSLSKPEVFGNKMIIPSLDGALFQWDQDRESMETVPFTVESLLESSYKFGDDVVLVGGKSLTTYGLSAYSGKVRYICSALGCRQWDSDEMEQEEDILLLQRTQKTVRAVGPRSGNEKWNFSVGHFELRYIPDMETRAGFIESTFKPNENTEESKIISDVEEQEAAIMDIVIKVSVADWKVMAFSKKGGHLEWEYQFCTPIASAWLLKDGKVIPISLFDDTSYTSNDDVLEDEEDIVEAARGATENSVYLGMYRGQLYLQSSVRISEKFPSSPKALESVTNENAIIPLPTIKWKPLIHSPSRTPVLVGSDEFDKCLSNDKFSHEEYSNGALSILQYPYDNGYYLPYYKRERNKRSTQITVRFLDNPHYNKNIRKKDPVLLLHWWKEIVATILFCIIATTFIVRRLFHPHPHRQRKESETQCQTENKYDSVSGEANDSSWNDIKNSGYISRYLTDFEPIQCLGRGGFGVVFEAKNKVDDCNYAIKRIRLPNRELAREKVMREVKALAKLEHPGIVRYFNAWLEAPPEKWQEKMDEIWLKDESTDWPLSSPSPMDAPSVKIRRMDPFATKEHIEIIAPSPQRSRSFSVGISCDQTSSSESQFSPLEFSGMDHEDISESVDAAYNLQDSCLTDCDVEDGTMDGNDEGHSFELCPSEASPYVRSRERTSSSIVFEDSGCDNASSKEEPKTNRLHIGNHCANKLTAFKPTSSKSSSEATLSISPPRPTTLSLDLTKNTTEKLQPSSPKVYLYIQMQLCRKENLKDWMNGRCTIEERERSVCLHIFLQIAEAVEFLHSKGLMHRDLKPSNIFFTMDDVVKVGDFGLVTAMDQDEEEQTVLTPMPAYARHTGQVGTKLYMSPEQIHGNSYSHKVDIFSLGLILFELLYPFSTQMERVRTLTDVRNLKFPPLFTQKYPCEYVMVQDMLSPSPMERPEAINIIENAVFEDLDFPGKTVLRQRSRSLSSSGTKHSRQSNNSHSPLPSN
Text: We set out to identify allosteric activators of IRE1 RNase by screening internal compound libraries for binding to the kinase, using a published ATP-competitive TR-FRET assay. We then tested kinase binders to assess RNase modulation in an IRE1-specific kinetic RNA cleavage assay that uses the cytoplasmic construct IRE1-LKR (Q470-L977) (Supplementary Fig. 1a). […] Next, we tested these compounds in KMS-11 multiple myeloma cells, known to express functional IRE1 and strongly depend on the IRE1 pathway due to hyper-production of immunoglobulins in the ER[31]. We measured mRNA levels of XBP1s and the well-established RIDD target DGAT2[22] (Fig. 1c and Supplementary Fig. 1c, respectively) using a branched DNA (bDNA) assay. […] Importantly, neither G-9807 nor G-1749 inhibit PERK (Supplementary Table 1).

Lck = Lck (Homo sapiens, UniProt P06239); set-up: Invitrogen kinase panel: Z'Lyte activity (ATP at Km) or LanthaScreen competitive ATP-site binding, percent inhibition
RAF1(Y340D,Y341D) = RAF1(Y340D,Y341D) (Homo sapiens, UniProt P04049, Y340D/Y341D); set-up: Invitrogen kinase panel: Z'Lyte activity (ATP at Km) or LanthaScreen competitive ATP-site binding, percent inhibition
ROCK1 = ROCK1 (Homo sapiens, UniProt Q13464); set-up: Invitrogen kinase panel: Z'Lyte activity (ATP at Km) or LanthaScreen competitive ATP-site binding, percent inhibition
Syk = Syk (Homo sapiens, UniProt P43405); set-up: Invitrogen kinase panel: Z'Lyte activity (ATP at Km) or LanthaScreen competitive ATP-site binding, percent inhibition
PKC_zeta = biological target: T2, PKC_zeta (Homo sapiens, UniProt Q05513); set-up: Invitrogen kinase panel: Z'Lyte activity (ATP at Km) or LanthaScreen competitive ATP-site binding, percent inhibition
T2 construct: gene PRKCZ
T2 sequence (Q05513 1-592): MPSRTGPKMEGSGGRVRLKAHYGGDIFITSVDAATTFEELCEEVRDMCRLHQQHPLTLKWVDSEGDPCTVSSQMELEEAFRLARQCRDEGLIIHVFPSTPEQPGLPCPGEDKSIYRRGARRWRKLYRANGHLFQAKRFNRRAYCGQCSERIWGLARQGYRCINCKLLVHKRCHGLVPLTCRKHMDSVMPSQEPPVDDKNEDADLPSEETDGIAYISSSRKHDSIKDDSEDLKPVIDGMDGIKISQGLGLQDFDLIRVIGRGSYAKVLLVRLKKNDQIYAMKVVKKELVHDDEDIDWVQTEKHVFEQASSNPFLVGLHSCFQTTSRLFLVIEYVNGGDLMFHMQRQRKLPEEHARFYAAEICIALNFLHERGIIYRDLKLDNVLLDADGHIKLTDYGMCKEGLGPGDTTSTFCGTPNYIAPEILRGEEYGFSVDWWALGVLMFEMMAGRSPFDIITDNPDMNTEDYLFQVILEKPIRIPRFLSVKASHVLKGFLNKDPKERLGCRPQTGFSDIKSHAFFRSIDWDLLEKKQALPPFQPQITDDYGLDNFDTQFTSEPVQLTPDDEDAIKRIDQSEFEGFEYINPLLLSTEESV

Chain of RAF1(Y340D,Y341D) (P04049 whole entry Y340D/Y341D): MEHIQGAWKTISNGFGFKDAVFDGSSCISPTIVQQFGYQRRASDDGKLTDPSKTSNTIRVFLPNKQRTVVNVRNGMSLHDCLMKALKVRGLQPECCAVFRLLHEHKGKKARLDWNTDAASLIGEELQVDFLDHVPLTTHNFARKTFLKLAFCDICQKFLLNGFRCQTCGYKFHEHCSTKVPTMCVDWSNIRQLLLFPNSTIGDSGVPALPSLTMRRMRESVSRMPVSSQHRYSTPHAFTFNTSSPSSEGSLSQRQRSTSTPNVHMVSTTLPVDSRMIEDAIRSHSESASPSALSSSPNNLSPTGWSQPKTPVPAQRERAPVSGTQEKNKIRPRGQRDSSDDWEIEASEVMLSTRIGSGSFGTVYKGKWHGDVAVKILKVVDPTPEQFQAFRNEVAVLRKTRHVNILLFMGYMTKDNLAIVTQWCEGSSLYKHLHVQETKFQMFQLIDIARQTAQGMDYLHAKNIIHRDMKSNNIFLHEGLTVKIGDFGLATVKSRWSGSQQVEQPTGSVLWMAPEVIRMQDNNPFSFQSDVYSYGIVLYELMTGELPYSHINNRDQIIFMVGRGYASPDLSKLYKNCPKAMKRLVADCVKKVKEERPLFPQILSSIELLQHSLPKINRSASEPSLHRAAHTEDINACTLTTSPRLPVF
Chain of ROCK1 (Q13464 whole entry): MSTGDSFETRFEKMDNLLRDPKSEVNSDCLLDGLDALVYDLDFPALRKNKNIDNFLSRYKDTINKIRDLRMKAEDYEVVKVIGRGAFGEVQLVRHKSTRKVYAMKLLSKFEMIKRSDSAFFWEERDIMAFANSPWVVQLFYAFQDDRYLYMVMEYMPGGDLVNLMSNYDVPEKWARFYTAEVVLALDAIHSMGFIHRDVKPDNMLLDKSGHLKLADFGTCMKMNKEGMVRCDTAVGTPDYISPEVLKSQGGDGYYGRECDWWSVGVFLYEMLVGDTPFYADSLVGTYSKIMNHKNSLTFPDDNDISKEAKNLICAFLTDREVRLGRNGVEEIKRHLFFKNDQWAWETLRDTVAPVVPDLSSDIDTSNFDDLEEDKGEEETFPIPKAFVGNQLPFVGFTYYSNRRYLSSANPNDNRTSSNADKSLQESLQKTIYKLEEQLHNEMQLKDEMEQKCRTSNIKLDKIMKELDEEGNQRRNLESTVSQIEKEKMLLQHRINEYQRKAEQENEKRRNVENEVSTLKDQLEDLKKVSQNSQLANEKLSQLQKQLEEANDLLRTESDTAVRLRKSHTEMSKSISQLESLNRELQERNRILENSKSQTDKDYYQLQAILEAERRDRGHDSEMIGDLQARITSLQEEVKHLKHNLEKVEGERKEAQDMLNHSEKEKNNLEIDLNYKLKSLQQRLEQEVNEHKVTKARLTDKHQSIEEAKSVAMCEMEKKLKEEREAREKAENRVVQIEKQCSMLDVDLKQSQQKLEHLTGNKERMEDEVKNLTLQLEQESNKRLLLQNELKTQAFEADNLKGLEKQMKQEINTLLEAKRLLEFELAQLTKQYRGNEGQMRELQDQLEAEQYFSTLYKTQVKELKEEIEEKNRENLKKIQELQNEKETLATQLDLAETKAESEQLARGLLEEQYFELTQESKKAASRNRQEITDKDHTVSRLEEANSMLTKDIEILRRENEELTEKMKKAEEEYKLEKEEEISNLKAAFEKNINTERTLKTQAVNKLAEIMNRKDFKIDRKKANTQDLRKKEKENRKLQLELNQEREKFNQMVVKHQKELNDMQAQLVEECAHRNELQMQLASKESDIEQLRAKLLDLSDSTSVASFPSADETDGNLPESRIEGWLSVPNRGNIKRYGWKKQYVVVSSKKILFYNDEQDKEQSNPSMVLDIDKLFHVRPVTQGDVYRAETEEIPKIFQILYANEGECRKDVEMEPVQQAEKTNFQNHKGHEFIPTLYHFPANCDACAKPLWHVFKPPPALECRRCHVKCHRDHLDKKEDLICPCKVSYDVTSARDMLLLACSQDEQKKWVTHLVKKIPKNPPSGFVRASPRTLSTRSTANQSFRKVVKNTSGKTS
Chain of Lck (P06239 whole entry): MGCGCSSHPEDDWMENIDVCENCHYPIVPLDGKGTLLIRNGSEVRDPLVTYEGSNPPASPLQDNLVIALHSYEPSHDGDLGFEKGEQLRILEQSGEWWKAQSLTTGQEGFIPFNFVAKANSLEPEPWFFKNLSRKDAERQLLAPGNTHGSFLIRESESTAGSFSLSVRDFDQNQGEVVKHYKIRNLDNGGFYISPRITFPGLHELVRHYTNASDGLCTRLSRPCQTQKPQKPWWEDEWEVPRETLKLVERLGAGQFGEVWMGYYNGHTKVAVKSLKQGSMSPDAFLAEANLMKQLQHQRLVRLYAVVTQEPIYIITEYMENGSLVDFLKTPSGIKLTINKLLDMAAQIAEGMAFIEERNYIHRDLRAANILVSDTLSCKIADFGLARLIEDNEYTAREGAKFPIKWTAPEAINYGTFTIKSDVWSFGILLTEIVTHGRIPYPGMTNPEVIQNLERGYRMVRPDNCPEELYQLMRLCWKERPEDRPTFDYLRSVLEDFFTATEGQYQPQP

Row | inhibition at 1 µM (PERK) [%] | inhibition at 1 µM (Lck) [%] | inhibition at 1 µM (RAF1(Y340D,Y341D)) [%] | inhibition at 1 µM (ROCK1) [%] | inhibition at 1 µM (Syk) [%] | inhibition at 1 µM (PKC_zeta) [%] | Compound
1 | 5.4 | – | – | – | – | – | Cc1ccc2c(NS(=O)(=O)c3ccccc3Cl)cccc2c1Oc1ncccc1-c1ccnc(N[C@H]2CCCNC2)n1 [AMG-18]
2 | – | -28.5 | 1 | 0.5 | -4.5 | 18.5 | CC#CC(=O)Nc1cccc2c(Oc3ncccc3-c3ccnc(N[C@H]4CCCNC4)n3)c(C)ccc12 [G-7658]
3 | 4.5 | 87.2 | 43.3 | 94.6 | 52 | 34.2 | O=c1cc(-c2n[nH]c3ncc(-c4c(F)cccc4F)cc23)nc(N2CCC(O)CC2)[nH]1 [G-9807]

Row | Compound | inhibition at 1 µM (PERK) [%] | inhibition at 1 µM (Lck) [%] | inhibition at 1 µM (RAF1(Y340D,Y341D)) [%] | inhibition at 1 µM (ROCK1) [%] | inhibition at 1 µM (Syk) [%] | inhibition at 1 µM (PKC_zeta) [%]
4 | CCOC(=O)Nc1cccc2c(Oc3ncccc3-c3ccnc(N[C@H]4CCCNC4)n3)c(C)ccc12 [G-1749] | 9.9 | 13.5 | 24.5 | 3.5 | -2.5 | 12
